According to article PMC12257397, “Scaffold Hopping Strategy toward New 4‑Aminoquinazolines Active Against Extracellular and Intracellular Mycobacterium tuberculosis” (ACS Medicinal Chemistry Letters, 2025):
≈ marks a conversion by molar mass, not a printed value.

Tests used:
[1] = test system: M. tuberculosis QcrB T313I; conditions: given in Figure 1A; cited from earlier work
[2] = test system: M. tuberculosis QcrB M342T; conditions: given in Figure 1A; cited from earlier work
[3] = test system: M. tuberculosis qcrCAB (A178T); conditions: given in Figure 1A; cited from earlier work
[4] = test system: M. tuberculosis LP-0497754-RM301, MmpL3 triple mutant (F255L, V646M, F644I); type: cell-based, Mycobacterium tuberculosis
[5] = test system: M. tuberculosis LP-0106898-RM1 (QcrB T313I); type: cell-based, Mycobacterium tuberculosis

FC(F)(F)c1ccc(CCNc2cc(-c3ccccn3)nc3ncnn23)cc1 [1 (TAP)]
MIC QcrB T313I [1]: > 20 µM
MIC QcrB M342T [2]: 10 µM (≈ 3.84 µg/mL)

CCc1nc2ccc(C)cc2n1CCCNc1ccccc1 [2 (FABA)]
MIC QcrB T313I [1]: 8.7 µM (≈ 2.55 µg/mL)
MIC QcrB M342T [2]: 4.1 µM (≈ 1.2 µg/mL)

CCc1nc(NCCCc2ccccc2)c2cc(C)sc2n1 [3 (CWHM-1023)]
IC50 [3]: > 500 nM

Cc1nc(NCCc2ccccc2)c2cc(I)ccc2n1 [9d]
MIC MmpL3 (F255L, V646M, F644I) [4]: 0.89 µM (≈ 0.346 µg/mL)
MIC QcrBT313I [5]: 0.67 µM (≈ 0.261 µg/mL)

COc1ccc(CCNc2nc(C)nc3ccc(I)cc23)cc1 [10d]
MIC MmpL3 (F255L, V646M, F644I) [4]: 1.5 µM (≈ 0.629 µg/mL)
MIC QcrBT313I [5]: 1.2 µM (≈ 0.503 µg/mL)

Cc1nc(NCCc2ccc(Cl)cc2)c2cc(I)ccc2n1 [11d]
MIC MmpL3 (F255L, V646M, F644I) [4]: 1.0 µM (≈ 0.424 µg/mL)
MIC QcrBT313I [5]: 0.80 µM (≈ 0.339 µg/mL)

Cc1nc(NCCc2ccc(OC(F)(F)F)cc2)c2cc(Br)ccc2n1 [13c]
MIC MmpL3 (F255L, V646M, F644I) [4]: 5.4 µM (≈ 2.3 µg/mL)
MIC QcrBT313I [5]: 4.0 µM (≈ 1.7 µg/mL)

Cc1nc(NCCc2ccc(OC(F)(F)F)cc2)c2cc(I)ccc2n1 [13d]
MIC MmpL3 (F255L, V646M, F644I) [4]: 8.3 µM (≈ 3.93 µg/mL)
MIC QcrBT313I [5]: 5.2 µM (≈ 2.46 µg/mL)

Cc1ccc(CCNc2nc(C)nc3ccc(I)cc23)cc1 [15d]
MIC MmpL3 (F255L, V646M, F644I) [4]: 0.89 µM (≈ 0.359 µg/mL)
MIC QcrBT313I [5]: 0.70 µM (≈ 0.282 µg/mL)

CCc1ccc(CCNc2nc(C)nc3ccc(Br)cc23)cc1 [16c]
MIC MmpL3 (F255L, V646M, F644I) [4]: 3.4 µM (≈ 1.26 µg/mL)
MIC QcrBT313I [5]: 2.4 µM (≈ 0.889 µg/mL)

CCc1ccc(CCNc2nc(C)nc3ccc(I)cc23)cc1 [16d]
MIC MmpL3 (F255L, V646M, F644I) [4]: 2.3 µM (≈ 0.96 µg/mL)
MIC QcrBT313I [5]: 1.8 µM (≈ 0.751 µg/mL)

Cc1nc(NCCc2ccc3ccccc3c2)c2cc(Br)ccc2n1 [17c]
MIC MmpL3 (F255L, V646M, F644I) [4]: 2.6 µM (≈ 1.02 µg/mL)
MIC QcrBT313I [5]: 2.2 µM (≈ 0.863 µg/mL)

Cc1nc(NCCc2ccc3ccccc3c2)c2cc(I)ccc2n1 [17d]
MIC MmpL3 (F255L, V646M, F644I) [4]: 1.4 µM (≈ 0.615 µg/mL)
MIC QcrBT313I [5]: 1.2 µM (≈ 0.527 µg/mL)

Cc1nc(NCCCc2ccccc2)c2ccccc2n1 [18a]
MIC MmpL3 (F255L, V646M, F644I) [4]: 1.2 µM (≈ 0.333 µg/mL)
MIC QcrBT313I [5]: 1.0 µM (≈ 0.277 µg/mL)

COc1ccc2nc(C)nc(NCCCc3ccccc3)c2c1 [18b]
MIC MmpL3 (F255L, V646M, F644I) [4]: 1.5 µM (≈ 0.461 µg/mL)
MIC QcrBT313I [5]: 1.3 µM (≈ 0.4 µg/mL)

Cc1nc(NCCCc2ccccc2)c2cc(Br)ccc2n1 [18c]
MIC MmpL3 (F255L, V646M, F644I) [4]: < 0.19 µM
MIC QcrBT313I [5]: <0.19 µM

Cc1nc(NCCCc2ccccc2)c2cc(I)ccc2n1 [18d]
MIC MmpL3 (F255L, V646M, F644I) [4]: 0.64 µM (≈ 0.258 µg/mL)
MIC QcrBT313I [5]: 0.48 µM (≈ 0.194 µg/mL)

c1ccc(CCCNc2ncnc3ccccc23)cc1 [18e]
MIC MmpL3 (F255L, V646M, F644I) [4]: 39.0 µM (≈ 10.3 µg/mL)
MIC QcrBT313I [5]: 29.0 µM (≈ 7.64 µg/mL)

CO[C@H]1/C=C/O[C@@]2(C)Oc3c(C)c(O)c4c(O)c(c(/C=N/N5CCN(C)CC5)c(O)c4c3C2=O)NC(=O)/C(C)=C\C=C\[C@H](C)[C@H](O)[C@@H](C)[C@@H](O)[C@@H](C)[C@H](OC(C)=O)[C@@H]1C [20 (RIF), rifampicin, reference compound]
MIC MmpL3 (F255L, V646M, F644I) [4]: 0.030 µM (≈ 0.0247 µg/mL)
MIC QcrBT313I [5]: 0.010 µM (≈ 0.00823 µg/mL)
